In patent publication US20060100243A1 (priority 2004, published 2006):
Entries after “also recorded” stand apart in the source; their conditions may differ. Like-named read-outs stand apart in the source and are kept apart here.

How the values were obtained:
[1] = biological target: T1, recombinant human serotonin transporter (Homo sapiens, UniProt P31645); experiment: biochemical; assay type: binding
T1 construct: expressed in transfected cells

[2] = biological target: T2, recombinant human dopamine transporter (Homo sapiens, UniProt Q01959); experiment: dopamine reuptake inhibition in HEK 293 cells; assay type: cell-based; conditions: for IC50: DOPAMINE DA REUPTAKE (IC50), HEK 293 cells; for NE/DA REUPTAKE: ratio of NE/DA reuptake IC50, selectivity for dopamine over norepinephrine transporter
T2 construct: expressed in transfected cells

[3] = biological target: T2, recombinant human dopamine transporter; experiment: [125I]RTI-55 binding, dopamine transporter in HEK 293 cells; conditions: for Ki: DOPAMINE [I125]-RTI-55 BINDING (Ki), HEK 293 cells; for potency at binding to the dopamine transporter and blocking dopamine reuptake: in words, compared with MPH / other samples
[4] = biological target: T3, recombinant human norepinephrine transporter (Homo sapiens, UniProt P23975); experiment: biochemical; assay type: binding
T3 construct: expressed in transfected cells

[5] = biological target: T1, recombinant human serotonin transporter; experiment: serotonin (5HT) reuptake inhibition in HEK 293 cells; assay type: cell-based; conditions: SEROTONIN 5HT REUPTAKE (IC50), HEK 293 cells
[6] = biological target: T3, recombinant human norepinephrine transporter; experiment: cell-based
[7] = SEROTONIN [I125]-RTI-55 BINDING (Ki)
[8] = NOREPINEPHRINE [I125]-RTI-55 BINDING (Ki)
[9] = RS/SR racemates table, HEK 293 cells, read-out: NOREPINEPHRINE NE REUPTAKE (IC50)
[10] = RR/SS racemates table, HEK 293 cells, read-out: NOREPINEPHRINE NE REUPTAKE (IC50)
[11] = RS/SR racemates table, HEK 293 cells, read-out: SEROTONIN [I125]-RTI-55 BINDING (Ki)
[12] = RR/SS racemates table, HEK 293 cells, read-out: SEROTONIN [I125]-RTI-55 BINDING (Ki)
[13] = RS/SR racemates table, HEK 293 cells, read-out: NOREPINEPHRINE [I125]-RTI-55 BINDING (Ki)

T1 sequence (P31645 whole entry): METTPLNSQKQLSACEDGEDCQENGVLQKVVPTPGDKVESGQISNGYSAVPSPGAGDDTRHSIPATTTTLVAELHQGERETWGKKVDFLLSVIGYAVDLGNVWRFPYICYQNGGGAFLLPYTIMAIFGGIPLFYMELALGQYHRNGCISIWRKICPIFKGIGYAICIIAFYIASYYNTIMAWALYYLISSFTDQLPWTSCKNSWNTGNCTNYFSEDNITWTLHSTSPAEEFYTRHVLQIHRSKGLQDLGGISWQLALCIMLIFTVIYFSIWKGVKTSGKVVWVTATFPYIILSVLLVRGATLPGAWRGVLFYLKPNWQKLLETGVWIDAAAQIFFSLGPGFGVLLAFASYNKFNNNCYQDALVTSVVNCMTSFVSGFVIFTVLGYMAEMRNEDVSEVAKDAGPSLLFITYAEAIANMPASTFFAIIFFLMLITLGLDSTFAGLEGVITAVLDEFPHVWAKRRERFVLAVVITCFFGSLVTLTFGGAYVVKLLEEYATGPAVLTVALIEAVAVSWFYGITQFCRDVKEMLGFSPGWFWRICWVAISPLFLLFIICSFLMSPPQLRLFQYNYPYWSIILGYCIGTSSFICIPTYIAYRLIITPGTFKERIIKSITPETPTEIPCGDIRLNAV
T2 sequence (Q01959 whole entry): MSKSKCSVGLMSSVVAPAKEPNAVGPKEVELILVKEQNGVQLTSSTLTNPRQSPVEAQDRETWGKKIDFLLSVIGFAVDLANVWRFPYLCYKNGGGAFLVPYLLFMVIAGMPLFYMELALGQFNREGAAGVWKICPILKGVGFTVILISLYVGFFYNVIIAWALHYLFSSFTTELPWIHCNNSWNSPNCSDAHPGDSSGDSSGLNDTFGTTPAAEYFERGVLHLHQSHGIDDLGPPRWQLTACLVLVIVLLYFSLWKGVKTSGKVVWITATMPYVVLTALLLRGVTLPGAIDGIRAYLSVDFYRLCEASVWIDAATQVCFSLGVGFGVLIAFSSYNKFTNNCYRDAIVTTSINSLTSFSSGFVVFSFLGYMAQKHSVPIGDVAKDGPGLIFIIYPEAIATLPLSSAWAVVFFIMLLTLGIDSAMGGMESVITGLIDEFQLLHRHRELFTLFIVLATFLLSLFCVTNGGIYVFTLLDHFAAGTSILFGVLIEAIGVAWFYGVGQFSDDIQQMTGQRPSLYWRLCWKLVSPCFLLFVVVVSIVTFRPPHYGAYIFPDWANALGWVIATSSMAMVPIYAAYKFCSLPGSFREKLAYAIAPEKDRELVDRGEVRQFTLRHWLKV
T3 sequence (P23975 whole entry): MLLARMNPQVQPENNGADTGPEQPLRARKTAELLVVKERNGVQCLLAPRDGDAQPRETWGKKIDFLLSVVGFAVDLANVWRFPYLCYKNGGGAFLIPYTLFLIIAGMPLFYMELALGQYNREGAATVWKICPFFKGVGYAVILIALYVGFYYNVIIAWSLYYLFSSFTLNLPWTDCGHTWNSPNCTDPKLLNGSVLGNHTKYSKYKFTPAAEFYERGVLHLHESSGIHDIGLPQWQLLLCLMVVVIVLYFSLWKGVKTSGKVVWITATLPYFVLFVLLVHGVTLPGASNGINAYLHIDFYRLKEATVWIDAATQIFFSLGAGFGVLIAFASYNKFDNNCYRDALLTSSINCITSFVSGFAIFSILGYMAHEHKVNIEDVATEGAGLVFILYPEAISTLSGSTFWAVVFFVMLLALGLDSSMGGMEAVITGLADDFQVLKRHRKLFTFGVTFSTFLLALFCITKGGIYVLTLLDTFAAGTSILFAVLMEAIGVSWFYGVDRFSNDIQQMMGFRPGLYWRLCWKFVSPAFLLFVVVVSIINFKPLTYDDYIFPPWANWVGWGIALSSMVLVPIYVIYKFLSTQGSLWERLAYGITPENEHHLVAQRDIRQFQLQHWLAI

Row | Compound | Ki [1, 7] [nM] | IC50 ([2]; RS/SR racemates table) [nM] | Ki ([3]; RS/SR racemates table) [nM] | Ki [4, 8] [nM] | IC50 ([2]; RR/SS racemates table) [nM] | NE/DA REUPTAKE [2] | IC50 ([5]; RR/SS racemates table) [nM] | Ki ([3]; RR/SS racemates table) [nM] | IC50 ([6]; NORE[…] REUPTAKE (IC50)) [nM] | IC50 ([5]; RS/SR racemates table) [nM] | other results
1 | CC(C)C(c1ccc(Cl)cc1)C1CCCCN1 (single isomer, unassigned) [CC] | > 10000 | 990 ± 280 | 900 ± 320 | > 10000 | – | – | – | – | – | – | –
2 | CC(C)C(c1ccc(Cl)cc1)C1CCCCN1 (single isomer, unassigned) [C] | 5300 ± 1300 | – | – | 810 ± 170 | 32 ± 6 | 1.6 | 3300 ± 400 | 46 ± 16 | 51 ± 20 | – | –
3 | CCCCC(c1ccc(Cl)cc1)C1CCCCN1 (single isomer, unassigned) [GG] | – | 170 ± 40 | 290 ± 70 | – | – | – | – | – | – | – | IC50 [6, 9]: 180 ± 160 nM; Ki ([4]; NOREPINEPHRINE [I125]-RTI-55 BINDING (Ki), RS/SR racemates table, HEK 293 cells): 1600 ± 300 nM
4 | CCCCC(c1ccc(Cl)cc1)C1CCCCN1 (single isomer, unassigned) [G] | – | – | – | – | 8.2 ± 2.1 | – | – | 7.8 ± 1.1 | – | – | potency at binding to the dopamine transporter and blocking dopamine reuptake [3]: enhanced potency; also recorded: most potent; IC50 [6, 10]: 26 ± 7 nM; Ki ([4]; NOREPINEPHRINE [I125]-RTI-55 BINDING (Ki), RR/SS racemates table, HEK 293 cells): 230 ± 30 nM
5 | Clc1ccc(C(CC2CCCCC2)C2CCCCN2)cc1 (single isomer, unassigned) [HH] | – | 410 ± 60 | 260 ± 30 | 4300 ± 200 | – | – | – | – | 1700 ± 600 | 6400 ± 1300 | Ki [1, 11]: 3700 ± 500 nM
6 | Clc1ccc(C(CC2CCCCC2)C2CCCCN2)cc1 (single isomer, unassigned) [H] | – | – | – | 4200 ± 200 | 230 ± 70 | 4.1 | 1000 ± 200 | 130 ± 40 | 940 ± 140 | – | Ki [1, 12]: 900 ± 400 nM
7 | Clc1ccc(C(CCc2ccccc2)C2CCCCN2)cc1 (single isomer, unassigned) [II] | 1840 ± 70 | 420 ± 140 | 700 ± 90 | 2400 ± 700 | – | – | – | – | 610 ± 150 | 2100 ± 900 | –
8 | Clc1ccc(C(CCc2ccccc2)C2CCCCN2)cc1 (single isomer, unassigned) [I] | 640 ± 60 | – | – | 1800 ± 600 | 160 ± 20 | 4.3 | 650 ± 219 | 24 ± 9 | 680 ± 240 | – | –
9 | Clc1ccc(C(Cc2ccccc2)C2CCCCN2)cc1 (single isomer, unassigned) [JJ] | 4300 ± 800 | 390 ± 60 | 550 ± 60 | 4000 ± 800 | – | – | – | – | > 800 | 4700 ± 500 | –
10 | Clc1ccc(C(Cc2ccccc2)C2CCCCN2)cc1 (single isomer, unassigned) [J] | 1100 ± 200 | – | – | 2900 ± 800 | 370 ± 90 | 7.8 | 1100 ± 200 | 440 ± 110 | 2900 ± 600 | – | selectivity for the dopamine transporter over the norepinephrine transporter ([2]; in words, from binding and reuptake values): enhanced selectivity
11 | Clc1ccc(C(C2CCCC2)C2CCCCN2)cc1 (single isomer, unassigned) [KK] | – | 240 ± 30 | 690 ± 140 | – | – | – | – | – | – | 4200 ± 900 | Ki [1, 11]: 4600 ± 700 nM
12 | Clc1ccc(C(C2CCCC2)C2CCCCN2)cc1 (single isomer, unassigned) [K] | – | – | – | – | 27 ± 8.3 | – | 4600 ± 800 | 36 ± 10 | – | – | Ki [1, 12]: 5700 ± 1100 nM
13 | COC(=O)C(c1ccc(Cl)c(Cl)c1)C1CCCCN1 (single isomer, unassigned) [MM] | – | 800 ± 110 | 90 ± 14 | – | – | – | – | – | – | 1100 ± 90 | Ki [1, 11]: 2500 ± 420 nM; IC50 [6, 9]: 190 ± 50 nM; Ki [4, 13]: 4200 ± 1900 nM
14 | COC(=O)C(c1ccc(Cl)c(Cl)c1)C1CCCCN1 (single isomer, unassigned) [M] | – | – | – | – | 23 ± 3 | 0.43 | 540 ± 110 | 1.4 ± 0.1 | – | – | Ki [1, 12]: 1600 ± 150 nM; IC50 [6, 10]: 10 ± 1 nM; Ki ([4]; RR/SS racemates table, HEK 293 cells, read-out: NOREPINEPHRINE [I125]-RTI-55 BINDING (Ki)): 14 ± 6 nM
15 | CC(C)CC(c1ccc(Cl)c(Cl)c1)C1CCCCN1C (single isomer, unassigned) [OO] | – | 45 ± 4 | 44 ± 12 | – | – | – | – | – | – | 2400 ± 700 | Ki [1, 11]: 1500 ± 300 nM; potency at binding to the dopamine transporter and blocking dopamine reuptake [3]: considerably more potent; also recorded: most potent; IC50 [6, 9]: 100 ± 19 nM; Ki [4, 13]: 660 ± 130 nM
